Assay results taken from patent US8431593B2, “Heteroaryl amide derivatives” (H. Lundbeck A/S, priority 2006, dated 2013).

Target: T1, P2X7 receptor (Homo sapiens, UniProt Q99572)
T1 construct: host or cells: SH-SY5Y
T1 sequence (Q99572 1-595): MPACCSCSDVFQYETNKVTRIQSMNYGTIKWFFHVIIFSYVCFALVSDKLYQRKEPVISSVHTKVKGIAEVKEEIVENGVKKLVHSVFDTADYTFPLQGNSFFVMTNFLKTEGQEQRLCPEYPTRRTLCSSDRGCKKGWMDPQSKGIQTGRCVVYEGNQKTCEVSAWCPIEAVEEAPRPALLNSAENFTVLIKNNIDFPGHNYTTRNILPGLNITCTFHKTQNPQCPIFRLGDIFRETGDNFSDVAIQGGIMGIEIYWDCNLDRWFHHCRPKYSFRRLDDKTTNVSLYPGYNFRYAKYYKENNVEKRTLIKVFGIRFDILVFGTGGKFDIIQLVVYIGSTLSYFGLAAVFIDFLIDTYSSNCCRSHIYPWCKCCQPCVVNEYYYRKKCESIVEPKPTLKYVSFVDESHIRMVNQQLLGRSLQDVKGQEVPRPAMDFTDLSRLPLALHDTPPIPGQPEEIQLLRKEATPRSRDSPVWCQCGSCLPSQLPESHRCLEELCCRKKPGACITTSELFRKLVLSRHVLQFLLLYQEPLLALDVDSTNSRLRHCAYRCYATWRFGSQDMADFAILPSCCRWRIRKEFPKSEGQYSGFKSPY
Test: P2X7 calcium mobilization assay, high throughput, antagonist activity (Example 4A)
Format: cell-based
Settings: 50% decrease in the fluorescence response of cells exposed to 80 μM of 2′(3′)-O-(4-benzoyl-benzoyl)adenosine 5′-triphosphate; Example 4A; read-out: IC50
Method in brief: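 Antagonism was measured as calcium mobilization on FLIPR^TETRA after a 1 h room-temperature compound preincubation of dye-loaded cells. Baseline from no-agonist wells was subtracted from each well's maximum RFU.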

Work on CC(C)CC(CNC(=O)c1cccc2nc(CN3CCOCC3)cn12)c1ccccc1 (stereo not shown) [Compound 688, N-(4-methyl-2-phenylpentyl)-2-(morpholin-4-ylmethyl)imidazo[1,2-a]pyridine-5-carboxamide] yielded an IC50 of less than 2 µM.
In the case of CCOC(=O)C(Cc1cccnc1)c1cn2c(C(=O)NCC34CC5CC(CC(C5)C3)C4)cccc2n1 (stereo not shown) [Compound 689, ethyl 2-{5-[(adamantan-1-ylmethyl)carbamoyl]imidazo[1,2-a]pyridin-2-yl}-3-pyridin-3-ylpropanoate], the IC50 is reported as less than 2 µM.
In the case of CNC1CCN(C(=O)Cc2cn3c(C(=O)NCC45CC6CC(CC(C6)C4)C5)cccc3n2)C1 (stereo not shown) [Compound 690, N-(adamantan-1-ylmethyl)-2-{2-[3-(methylamino)pyrrolidin-1-yl]-2-oxoethyl}imidazo[1,2-a]pyridine-5-carboxamide], the IC50 is reported as less than 2 µM.
Molecule CN(C)[C@@H]1CCN(C(=O)Cc2cn3c(C(=O)NCC45CC6CC(CC(C6)C4)C5)cccc3n2)C1 [Compound 691, N-(adamantan-1-ylmethyl)-2-{2-[(3R)-3-(dimethylamino)pyrrolidin-1-yl]-2-oxoethyl}imidazo[1,2-a]pyridine-5-carboxamide] has an IC50 of less than 2 µM.
O=C(O)CCCc1cn2c(C(=O)NCC34CC5CC(CC(C5)C3)C4)cccc2n1 [Compound 692, 4-{5-[(adamantan-1-ylmethyl)carbamoyl]imidazo[1,2-a]pyridin-2-yl} butanoic acid] was tested, and the IC50 was less than 2 µM.
CC(Cc1cn2c(C(=O)NCC34CC5CC(CC(C5)C3)C4)cccc2n1)C(=O)O (stereo not shown) [Compound 693, 3-{5-[(adamantan-1-ylmethyl)carbamoyl]imidazo[1,2-a]pyridin-2-yl}-2-methylpropanoic acid] showed an IC50 of less than 2 µM.
O=C(NCC12CC3CC(CC(C3)C1)C2)c1cccc2nc(C(=O)N3CCCC(C(=O)NCCCO)C3)cn12 (stereo not shown) [Compound 694, N-(adamantan-1-ylmethyl)-2-({3-[(3-hydroxypropyl)carbamoyl]piperidin-1-yl}carbonyl) imidazo[1,2-a]pyridine-5-carboxamide] was tested, and the IC50 was less than 2 µM.
CC(C)N(CCCO)C(=O)c1cn2c(C(=O)NCC34CC5CC(CC(C5)C3)C4)cccc2n1 [Compound 695, 5-N-(adamantan-1-ylmethyl)-2-N-(3-hydroxypropyl)-2-N-isopropylimidazol[1,2-a]pyridine-2,5-dicarboxamide] was tested, and the IC50 was less than 2 µM.
In the case of CC(C)(C)NCCOC(=O)c1cn2c(C(=O)NCC34CC5CC(CC(C5)C3)C4)cccc2n1 [Compound 696, 2-(tert-butylamino)ethyl 5-[(adamantan-1-ylmethyl)carbamoyl] imidazo[1,2-a] pyridine-2-carboxylate], the IC50 is reported as less than 2 µM.
CC(C)N(CCO)C(=O)c1cn2c(C(=O)NCC34CC5CC(CC(C5)C3)C4)cccc2n1 [Compound 697, 5-N-(adamantan-1-ylmethyl)-2-N-(2-hydroxyethyl)-2-N-isopropylimidazo[1,2-a]pyridine-2,5-dicarboxamide] showed an IC50 of less than 2 µM.
CC1CCCCN1C1CCN(C(=O)c2cn3c(C(=O)NCC45CC6CC(CC(C6)C4)C5)cccc3n2)CC1 (stereo not shown) [Compound 699, N-(adamantan-1-ylmethyl)-2-[(2-methyl-1,4′-bipiperidin-1′-yl)carbonyl]imidazo[1,2-a]pyridine-5-carboxamide] showed an IC50 of less than 2 µM.
O=C(NCC12CC3CC(CC(C3)C1)C2)c1cccc2nc(C(=O)N3CCN([C@@H]4CCC[C@H]4O)CC3)cn12 [Compound 700, N-(adamantan-1-ylmethyl)-2-({4-[(1R,2R)-2-hydroxycyclopentyl]piperazin-1-yl}carbonyl)imidazo[1,2-a]pyridine-5-carboxamide] showed an IC50 of less than 2 µM.
O=C(NCC12CC3CC(CC(C3)C1)C2)c1cccc2nc(C(=O)N3CCN([C@@H]4CCCC[C@H]4O)CC3)cn12 [Compound 701, N-(adamantan-1-ylmethyl)-2-({4-[(1R,2R)-2-hydroxycyclohexyl]piperazin-1-yl}carbonyl)imidazo[1,2-a]pyridine-5-carboxamide] showed an IC50 of less than 2 µM.
